Values after ≈ are worked out from the molar mass of the structure shown. Blank lines part the entries; values can stand above or below the compound they belong to.
Experiments:
[1] = test system: Candida albicans strain SC5314; test: Antifungal MIC assay; assay type: cell-based; details: 35° C., 48 hrs, RPMI with MOPS
Experimental: (§1) Cryptococcus neoformans serotype A strain H99 as well as Candida ablicans strain SC5314, were readily available in the lab. The stock of cells is stored at −80° C. to preserve the fungi and prevent contamination. The cells were grown and maintained in yeast extract-peptone-dextrose (YPD) media (Difco). Cryptococcus or Candida cells were incubated in YPD broth for 18 hrs at 30° C., in a shaking incubator. After the incubation period, they were washed three times in sterile phosphate-buffered saline (PBS) to remove all remaining residue of YPD. The cells were then quantified by using trypan blue dye exclusion in a hemocytometer.
(§2) C. albicans were suspended in RPMI with MOPS, 0.165M, at a concentration of 0.5×10^3 cells/mL. RPMI Mops media was added to a 96-well plate in a volume of 100 μL to every well, with the exception of column 1. An additional 80 μL of RPMI MOPS was added to column 4 for a total of 180 μL/per well. EIPE-1 was added to columns 2 and 4 with a volume of 20 μL at a concentration of 1 mg/mL. Contents were mixed, then serially diluted 100 μL down the plate until column 11. The last 100 μL was discarded, leaving column 12 blank. C. albicans was added at a volume of 100 μL per well from column 4 to column 12, so the final volume of the wells was 200 μL. Plates were incubated at 35° C. in a humid incubator for 48 hrs.

[2] = test system: Cryptococcus neoformans serotype A strain H99; test: Antifungal MIC assay; assay type: cell-based
Experimental: as §1
as §2, with “neoformans” for “albicans”, “MOPS” for “Mops”, “well. Amphotericin B or” for “well.”

[3] = test system: HeLa cells; test: Cytotoxicity, LDH leakage assay; assay type: cell-based; details: 24-hour exposure, 250 μg/mL (610 μM)
Experimental: HeLa cells were cultured in 96-well plates at 37° C. and 5% CO2 in Roswell Park Memorial Institute (RMPI) 1640 medium with 5% Fetal Bovine Serum (FBS). Once HeLa cells reached 95% confluency, the media was replaced with media containing various concentrations of EIPE-1, DBI or DMSO for 24 hours. Cell cytotoxicity was measured using the lactate dehydrogenase (LDH) leakage assay. Results were compared to maximum values of lysed cells in control wells and were graphed as percent relative cytotoxicity using Prism 5.0.
Host cell cytotoxicity against HeLa cells was examined for both DBI and EIPE-1 (FIG. 2B). LDH release was examined after 24-hour exposure to varying concentrations of DBI, DMSO and EIPE-1. […] Thus, EIPE-1 is relatively safe to use with respect to eukaryotic cells.

[4] = test system: MRSA; test: Live/Dead staining and fluorescent microscopy; assay type: cell-based, Staphylococcus aureus; details: 16 μg/mL, 17 μM, 30 minutes; Syto 9 and propidium iodide
Experimental: MRSA was grown overnight in 10 mL of LB broth, sub-cultured (5 mL of overnight culture added to 20 mL LB) and grown for 3 h. Bacterial culture (150 μL) were removed and transferred to a 1.5 mL centrifuge tube, which was treated with DMSO, EIPE-1 (0.01 mg/mL) or DBI (0.01 mg/mL) for 30 minutes. Equal amounts of the two dyes (SYTO 9 dye, 3.34 mM in DMSO), and propidium iodide (20 mM in DMSO) were mixed. Then 0.5 μL of the dye mixture was added to each tube of treated MRSA cultures. Wet mounts were prepared on glass slides for imaging live and dead MRSA, and Differential Interference Contrast (DIC) images were obtained using a Leica DMI600B fluorescent microscope. To determine the percentage of bacteria alive and dead, the total bacteria in each condition were counted in 20 fields of view and graphed using Prism 5.0.
To address MRSA viability in response to EIPE-1 treatment, a Live/Dead staining and microscopy was utilized. MRSA was treated with either DBI or EIPE-1 (16 μg/mL, 17 μM each) for 30 minutes (DMSO was used as a negative solvent control) and then stained with the dyes, Syto™ 9 and propidium iodide.

[5] = test system: MRSA; test: Recoverable CFU after exposure to DBI; assay type: cell-based, Staphylococcus aureus; details: MRSA after 4 h of growth with DBI; DMSO control average 1.78×10^8
Experimental: To determine CFUs of PA and MRSA after exposure to DMSO, DBI, EIPE-1, Gentamicin or Methicillin, 10-fold serial dilutions were prepared in 96-well micro plates using multichannel pipettes. For each dilution, 25 ptL of each sample was pipetted onto a plate containing agar medium and incubated for 18 h at 37° C. The number of colonies for each dilution were counted and used to back calculate the number of bacteria per mL (CFU/mL) in each original bacterial culture.
After 4 h of growth, the resulting cultures were plated onto Mannitol Salts Agar (MSA). Decreased bacterial growth and decreased fermentation of the Mannitol (retention of the reddish hue of the MSA plate) could be seen in the MRSA culture exposed to DBI (FIG. 1A) which was confirmed with decreased recoverable CFUs (FIGS. 1B and 1C).

[6] = test system: methicillin resistant Staphylococcus aureus (MRSA) clinical isolate; test: MIC by broth microdilution; assay type: cell-based; details: clinical isolate of MRSA from an adult CF patient; broth culture, 18 h at 37° C.
Experimental: The methicillin resistant Staphylococcus aureus (MRSA) and Pseudomonas aeruginosa (PA) strains used in this study are clinical isolates obtained from an adult CF patient at the Cystic Fibrosis Clinic at the OU Children's Hospital (Oklahoma City, Okla.). Escherichia coli (E. coli) and Enterococcus faecalis (E. faecalis) were obtained from American Type Culture Collection (ATCC). The strains were grown overnight with shaking at 37° C. (220 RPM) in 15 mL of Luria-Bertani (LB) broth. The overnight culture was sub-cultured the next day before use for the MIC experiments. All sub-cultures consisted of 1 mL of the overnight culture, mixed with 10 mL of Mueller Hinton broth. The working stock of the EIPE-1 and DBI was prepared by dissolving 1 mg of each in 1 mL of DMSO.
The minimum inhibitory concentrations (MICs) were determined by the broth microdilution method, following the guidelines of the Clinical and Laboratory Standards Institute (CLSI). Two-fold serial dilutions of EIPE-1, DBI, and Arm (starting with 1 mg/mL) were prepared in a 100 μL volume in 96-well microtiter plates. The dilution series included DMSO as a negative control. The bacterial culture […] was normalized to an OD600 of 0.2 and was then added to each well. Plates were incubated with shaking at 220 RPM at 37° C., and the MIC was determined based on the lowest concentration at which no visible growth of the bacterial isolate was observed.
In order to determine the MIC of EIPE-1 on MRSA, a culture of MRSA was grown overnight in Mueller Hinton broth (MHB) at 37° C., sub-cultured by a 1/100 dilution into MHB and dispensed into a 96 well culture block (900 μL of diluted culture in each well). To each well either DMSO or a serial dilution of EIPE-1 was added, then the culture was grown for 18 h at 37° C. The next day each well was tested for either growth or inhibition of growth by measuring of the OD^600 of the resulting culture. […] For comparison, the MIC of EIPE-1 was also determined against E. faecalis (8 μg/mL, 9 μM), confirming activity against Gram-positive bacteria.

[7] = test system: MRSA; test: Kirby-Bauer disc diffusion assay; assay type: cell-based, Staphylococcus aureus
Experimental: The susceptibility of MRSA to EIPE-1 was determined by the Kirby-Bauer disc diffusion method. Using a cotton swab applicator, a lawn of the S. aureus clinical isolate was placed onto Mueller Hinton agar plates to cover the entire surface of the plate. Filter discs (size=6 mm) were added onto the bacterial lawn. EIPE-1, DBI, and DMSO (10 μL each) were then added onto the filter discs.
The efficacy of compound EIPE-1 was tested by the Kirby-Bauer disc assay. The Kirby-Bauer disc assay assesses the sensitivity of bacteria to antimicrobial agents. If the bacteria are sensitive to the antimicrobial being tested, then a zone of inhibition of bacterial growth is seen around the filter disc containing the antimicrobial. The Kirby-Bauer disc assay was used to test the antimicrobial efficacy of EIPE-1 against MRSA. EIPE-1 was reconstituted at 1 mg/mL in DMSO and serially diluted (10^−1 to 10^−5) after which 10 μL of each dilution (and DMSO as a solvent control) was added to a separate disc on an LB plate inoculated with a lawn of bacteria. The plates were incubated at 37° C. for 24 h, and the resulting radii zone sizes around each disc were then measured.

Minimum inhibitory concentration (MIC) for the isolate of C. albicans [1]: 0.5606 ± 0.1219 µg/mL
Minimum inhibitory concentration (MIC) for the isolate of C. neoformans ([2]; 35° C., 48 hrs, RPMI with MOPS): 0.6825 ± 0.2925 µg·mL
Structure (SMILES): C[C@@H]1[C@H](O)[C@@H](C)/C=C/C=C/C=C/C=C/C=C/C=C/C=C/[C@H](O[C@@H]2O[C@H](C)[C@@H](O)[C@H](N)[C@@H]2O)C[C@@H]2O[C@](O)(C[C@@H](O)C[C@@H](O)[C@H](O)CC[C@@H](O)C[C@@H](O)CC(=O)O[C@H]1C)C[C@H](O)[C@H]2C(=O)O [Amphotericin B, reference compound]
minimum inhibitory concentration average, C. neoformans ([2]; across four experiments): 0.6 µg/mL (≈ 0.649 µM)

Structure (SMILES): COC(=O)c1cc2c(Br)c(OC)c(OC)c(Br)c2n1C [DBI, methyl 4,7-dibromo-5,6-dimethoxy-1-methyl-1H-indole-2-carboxylate]
cytotoxicity (LDH release) [3]: 30%
Live/Dead staining (green = intact membrane, red = damaged membrane) [4]: mostly stained green
recoverable CFUs (average) [5]: 1.19×10^7 CFU/mL
minimum inhibitory concentration (MIC) [6]: could not be determined

Structure (SMILES): CN(C)CCCOc1ccc(I)cc1 [arms]
antimicrobial activity independent of the DBI core [7]: did not exhibit any antimicrobial activity
